# Data: patent US20100184675A1, “USE OF GLUCAGON (1-29) ALONE OR IN COMBINATION WITH NEUROPEPTIDE W30 AS A THERAPEUTIC AGENT” (priority 2007, published 2010)
# Ends that are not written are not given here.
# What was measured:
# HIV-1IIIB = experiment: HIV-1 antiviral assay in CEM-SS cells; conditions: peptides 10 micrograms per ml, 6 days post-infection
# HCMV strain AD169 = experiment: HCMV plaque formation assay in MRC-5 cells; conditions: peptides 10 micrograms per ml, 7-10 days
# murine spleen cells = experiment: Th1/Th2 cytokine profiling assay (Ovalbumin-restimulated spleen cells); assay type: cell-based, Balb/c mice; conditions: 10 micrograms per ml; 72 hours; combination 0.95 mole peptide 1 and 1.05 mole peptide 2
# Experimental: On day 50, spleens of the mice were harvested (3 weeks after last boost with Ovalbumin). Cells were cultured (2×10^5/well in triplicate) and incubated with culture medium or test peptides—10 micrograms per ml—for 30 min. Thereafter, additional Ovalbumin was added to the cells at 10 micrograms/ml for in vitro restimulation of the cells. 72 hours later, cell supernatants were harvested and assayed using the Becton Dickinson Mouse Th1/Th2 Cytokine CBA Kit.
# [1] = test system: hepatitis B virus (HBV) ayw strain; experiment: HBV experimental assay system (HepG2-2.2.15, secreted HBV DNA by TaqMan PCR); assay type: cell-based; conditions: 10 micrograms per ml; 6 days; combination 0.95 mole peptide 1 and 1.05 mole peptide 2
# Experimental: HepG2-2.2.15 cells were plated in 96-well microtiter plates. After 16-24 hours the confluent monolayer of HepG2-2.2.15 cells was washed and the medium was replaced with complete medium containing test peptides—10 micrograms per ml—in duplicate. Lamivudine (3TC) was used as the positive control, while media alone was added to the cells as a negative control (virus control). Three days later the culture medium was replaced with fresh medium containing the peptides. Six days following the initial administration of the peptides, the cell culture supernatants was collected, treated with pronase and DNAse and then used in a real-time quantitative TaqMan PCR assay. The PCR-amplified HBV DNA was detected in real-time by monitoring increases in fluorescence signals that result from the exonucleolytic degradation of a quenched fluorescence probe molecule that hybridizes to the amplified HBV DNA. For each PCR amplification, a standard curve was simultaneously generated using dilutions of purified HBV DNA. Antiviral activity was calculated from the reduction in HBV DNA levels (% virus control). A novel dye uptake assay was then employed to measure cell viability, which is used to calculate toxicity (% cell control).
# [2] = test system: Primary Human endothelial cells (HUVEC); experiment: Endothelial cell migration assay; assay type: cell-based; conditions: 10 micrograms per ml; 22 hours
# HUVEC = experiment: Endothelial tube formation assay; assay type: cell-based, human; conditions: 10 micrograms per ml; 20 hours
# Experimental: The endothelial tube formation assay is based on the ability of endothelial cells to form three-dimensional capillary-like tubular structures when cultured on a gel of basement membrane extract. […] Pre-labeled HUVEC with Calcein AM were seeded in a 96-well culture plate coated with extracellular metrix (Chemicon international Cat. […] Positive control was vehicle only. […] Duplicate wells for each treatment were photographed and quantitatevily analyzed for an average tubule length using image analysis software ImageProPlus. Raw data were expressed as average tubule lengths in pixels ±standard deviation. Statistic p values were computed using the Student's t-test.
compound,measurement,setting,value
Cc1cn([C@H]2C[C@H](N=[N+]=[N-])[C@@H](CO)O2)c(=O)[nH]c1=O [AZT],inhibition of HIV-1 activity on tested T-cells,HIV-1IIIB,expected levels of antiviral activity
"Nc1nc(O)c2ncn(COC(CO)CO)c2n1 [Ganciclovir, reference compound]",inhibition of HCMV plaque formation as compared to the virus control,HCMV strain AD169,expected levels of antiviral activity
CC(C)(C)NC(=O)[C@@H]1CN(Cc2cccnc2)CCN1C[C@@H](O)C[C@@H](Cc1ccccc1)C(=O)N[C@H]1c2ccccc2C[C@H]1O [indinavir],inhibition of HIV-1 activity on tested T-cells,HIV-1IIIB,expected levels of antiviral activity
"Trp-Tyr-Lys-His-Val-Ala-Ser-Pro-Arg-Tyr-His-Thr-Val-Gly-Arg-Ala-Ala-Gly-Leu-Leu-Met-Gly-Leu-Arg-Arg-Ser-Pro-Tyr-Leu-Trp-OH (WYKHVASPRYHTVGRAAGLLMGLRRSPYLW-OH) [Peptide 2, Neuropeptide W-30, commercially available known peptide]",inhibition of HCMV plaque formation as compared to the virus control,HCMV strain AD169,did not inhibit
same,change of the production of IFN-γ (figure = decreased by),murine spleen cells,25.5%
same,change of the production of IL-2 (figures = increased by),murine spleen cells,82.1%
same,change of the production of IL-4 (figure = induced by),murine spleen cells,did not significantly change
same,change of the production of IL-5 (figures = decreased by),murine spleen cells,29.3%
same,change of the production of TNF-alpha,murine spleen cells,did not significantly change
same,inhibition of HBV replication as compared to the virus control infection,[1],10.7%
same,inhibition of the migration of human endothelial cells,[2],17%
same,inhibition of the tube formation of human endothelial cells,HUVEC,16%
